Source: patent US7935853B2, “Micronized composition of a 2,4-disubstituted phenol derivative” (priority 2008, dated 2011)
“And” between values parts separate entries of the source, which are not always exact repeats. Equal entries are not always repeated.

Molecular target: T1, 5-lipoxygenase (Rattus norvegicus, UniProt P12527)
T1 construct: leukotriene B4 formation (LTB4) by 5-lipoxygenase ex-vivo in rat whole blood stimulated with calcium ionophore; from tissue
T1 sequence (P12527 1-673): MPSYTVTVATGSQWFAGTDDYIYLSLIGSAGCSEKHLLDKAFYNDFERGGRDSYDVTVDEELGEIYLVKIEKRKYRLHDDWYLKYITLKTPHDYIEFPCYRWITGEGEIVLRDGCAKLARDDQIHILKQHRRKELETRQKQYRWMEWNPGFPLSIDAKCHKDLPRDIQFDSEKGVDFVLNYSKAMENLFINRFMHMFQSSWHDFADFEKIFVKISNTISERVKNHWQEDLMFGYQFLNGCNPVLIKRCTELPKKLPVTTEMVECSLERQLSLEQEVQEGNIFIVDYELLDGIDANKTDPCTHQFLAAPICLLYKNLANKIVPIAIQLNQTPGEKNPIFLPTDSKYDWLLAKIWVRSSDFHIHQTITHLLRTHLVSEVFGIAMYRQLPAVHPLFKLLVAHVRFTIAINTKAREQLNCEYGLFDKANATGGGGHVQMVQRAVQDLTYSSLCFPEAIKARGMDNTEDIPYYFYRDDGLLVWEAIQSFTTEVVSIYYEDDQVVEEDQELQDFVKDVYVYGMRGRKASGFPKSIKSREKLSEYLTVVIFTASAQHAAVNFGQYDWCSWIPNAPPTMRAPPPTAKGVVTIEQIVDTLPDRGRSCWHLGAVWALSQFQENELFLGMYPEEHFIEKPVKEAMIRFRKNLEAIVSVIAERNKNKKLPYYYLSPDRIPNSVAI
Assay: Inhibitory activity over 5-lipoxygenase ex-vivo in rat whole blood (LTB4 by EIA)
Settings: for LTB4 (ng/ml), group mean / LTB4 (ng/ml), individual samples: blood 1 h after last dose, calcium ionophore 30 μM; for LTB4 (ng/ml), individual samples / LTB4 % inhib., individual samples: individual rats
Description: In the example shown 3 groups of animals (rats) were used, with 6 rats in each group. The groups were;
1 group 1: control (vehicle)
2 group 2: treated with micronized test substance (10 mg/Kg)
3 group 3: treated with non-micronized test substance (10 mg/Kg)
The distribution of animals to each group was done in a randomized manner at the start of the study.
The test and reference substances were administered orally as a suspension in 0.25% carboximethylcellulose in a dosing volume of 4 ml/kg via an oral cannula.
Test substance administration was carried out once every 24 hours (09 h 00 min) for 5 consecutive days. On the 5th day a blood sample was obtained from each animal (1 mL) 1 hour after administration of the test and reference substances. Blood samples were obtained from the posterior (abdominal) vena cava in sterile syringes containing sodium citrate (4%) as an anticoagulant. Each blood sample was divided into two 0.5 ml aliquots (duplicates). A 1 hour time lapse after test substance administration was used before obtaining the blood samples as it was determined in preliminary studies that this is when there is a greater inhibition of leukotriene synthesis by the test substance.
Immediately after collection of the blood samples, the duplicated aliquots were incubated at 37° C. for 10 min. After this time, the aliquots were stimulated with calcium ionophore (30 μM, final concentration) for 30 min at 37° C. Once the incubation period was over the aliquots were centrifuged at 12.000 g for 2 minutes. The resulting plasma was separated and stored at −20° C. for its posterior analysis. In these samples the concentration of leukotriene B4 was determined by enzyme immunoassay (kit EIA; Amersham).

[1] = 10 mg/Kg oral once daily 5 days, 10 mg/kg
[2] = 10 mg/Kg oral once daily 5 days, vs control, 10 mg/kg

SMILES: Oc1c(I)cc(I)cc1I [Micronized, 2,4,6-triiodophenol]
- degree of LTB4 inhibition compared with the other form (10 mg/kg, 5 days oral): superior to that obtained with the non-micronized product
- inhibition of leukotriene B4 formation by 5-lipoxygenase ex-vivo (in words) (10 mg/kg, 5 days oral, P<0.05 ANOVA+Dunnett's test): inhibits, in a statistically significant manner
- LTB4 (ng/ml), group mean (group mean, 6 rats, 10 mg/Kg oral once daily 5 days, 10 mg/kg): 5.492 ng/mL
- LTB4 (ng/ml), individual samples [1]: 6.549 ng/mL and 5.032 ng/mL and 4.583 ng/mL and 6.118 ng/mL and 4.602 ng/mL and 6.067 ng/mL
- LTB4 % inhib., individual samples [2]: 20.176% and 38.665% and 44.140% and 25.423% and 43.902% and 26.054%
- inhibition at 10 mg/kg (rat, po, group mean, 6 rats, 10 mg/Kg oral once daily 5 days, vs control, read-out: LTB4 % inhib., group mean): 33.1%

SMILES: Oc1c(I)cc(I)cc1I [Non-Micronized, 2,4,6-triiodophenol]
- LTB4 (ng/ml), group mean (group mean, 6 rats, 10 mg/Kg oral once daily 5 days, listed as S. Ref., 10 mg/kg): 6.496 ng/mL
- LTB4 % inhib., group mean (group mean, 6 rats, 10 mg/Kg oral once daily 5 days, vs control, listed as S. Ref., 10 mg/kg): 20.818%
- LTB4 (ng/ml), individual samples [1]: 6.862 ng/ml and 4.355 ng/ml (2×) and 4.905 ng/ml and 8.818 ng/ml and 9.682 ng/ml
- LTB4 % inhib., individual samples [2]: 16.356% and 46.917% and 40.210% and −7.480% and −18.013%
